Results taken from US10166271B2, “Methods for promoting hair growth” (THE REGENTS OF THE UNIVERSITY OF CALIFORNIA, priority 2006, dated 2019).

How the values were obtained:
young CRF-OE mice [1] = details: mouse, in vivo
Method: Each subcutaneous injection is given in a single puncture located along or about the midline of the back. Age-matched CRF-OE mice similarly injected with 0.1 ml vehicle alone are used as negative controls. Astressin B fragments are as described in Example 8. Alternatively, topical astressin B can be applied to the mouse's back, for example 0.05 mg, 0.5 mg, 5 mg, 50 mg, or 500 mg of an astressin B fragment once daily for at least five consecutive days
Hair growth (or hair loss) is assessed using the hair growth scale described in Example 1. The general conditions of treated and control mice, such as weight, back skin thickness, hair luster, skin wounds and indurations, are noted.

young CRF-OE mice [2] = assay: Astressin B fragments, prevention of hair loss in young CRF-OE mice (Example 9); assay type: in vivo; details: 5 μg sc or ip x 5 days, all time points
Method: CRF-OE mice similarly injected with 0.1 ml saline alone (or 5 μg astressin 2B in 0.1 ml saline) are used as negative controls. Astressin B fragments are as described in Example 8.

| Substance | General conditions of treated mice (young CRF-OE mice [1]) | Hair in the test area (young CRF-OE mice [2]) |
| --- | --- | --- |
| (cyclo 30-33)[DPhe12, Nle21,38, Cml27,40, Glu30, Lys33]Ac-h/rCRF9-41 [Astressin B] | well and substantially the same | – |
| cyclo(31-34)[DPhe11, His12, CαMeLeu13,39, Nle17, Glu31, Lys34]Ac-Sau(8-40) [Astressin 2B, reference compound] | – | develop ultimately alopecia in the test area |
